Assays:
[1] = tested on: DU4475 cells; assay: Cell-based assay: anti-proliferative activity, Cell Counting Kit-8, 72 hours (DU4475); conditions: Homo sapiens, DU-4475, 72 h
[2] = tested on: HT-1197 cells; assay: Cell-based assay: anti-proliferative activity, Cell Counting Kit-8, 72 hours (HT-1197, negative control without MELK expression); conditions: Homo sapiens, HT1197, 72 h, HT1197 cells (negative control), 72 hours
Method in brief: (§1)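 Cellular growth is read by CCK-8 colorimetric kit 72 h after inhibitor addition to seeded cells, and IC50 values are derived from the resulting data; MELK protein levels in these lines are checked beforehand by immunoblotting whole crude lysate.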

[3] = tested on: T47D cells; assay: Cell-based assay: anti-proliferative activity, Cell Counting Kit-8, 72 hours (T47D); conditions: Homo sapiens, T47D, 72 h
Method in brief: as §1

[4] = biological target: MELK (Homo sapiens, UniProt Q14680); assay: Kinase assay: MELK activity, phosphorylation of FITC-labeled histone H3 peptide measured by IMAP fluorescence polarization; assay type: biochemical; conditions: read-out: IC50 (μM) (kinase assay)
MELK, sequence (Q14680 whole entry, looked up): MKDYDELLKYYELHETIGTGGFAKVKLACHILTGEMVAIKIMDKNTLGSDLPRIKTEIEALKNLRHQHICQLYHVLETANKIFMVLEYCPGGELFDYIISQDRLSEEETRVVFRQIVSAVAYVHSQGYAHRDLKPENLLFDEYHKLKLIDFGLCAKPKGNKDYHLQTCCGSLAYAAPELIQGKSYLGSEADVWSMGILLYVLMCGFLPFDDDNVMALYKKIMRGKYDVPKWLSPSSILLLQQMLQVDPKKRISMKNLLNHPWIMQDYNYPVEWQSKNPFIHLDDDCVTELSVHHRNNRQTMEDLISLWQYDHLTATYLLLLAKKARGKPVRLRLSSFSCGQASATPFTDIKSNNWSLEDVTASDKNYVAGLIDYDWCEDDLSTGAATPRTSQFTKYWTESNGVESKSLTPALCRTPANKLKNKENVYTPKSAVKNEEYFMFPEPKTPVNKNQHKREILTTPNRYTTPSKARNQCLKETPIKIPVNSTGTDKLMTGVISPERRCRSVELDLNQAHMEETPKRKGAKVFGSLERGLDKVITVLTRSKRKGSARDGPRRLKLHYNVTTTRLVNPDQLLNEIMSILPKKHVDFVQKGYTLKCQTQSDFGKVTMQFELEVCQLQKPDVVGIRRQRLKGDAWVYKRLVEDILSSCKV
Method in brief: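 FP readout: FITC-histone H3 peptide phosphorylation, read 0.5 h (RT) after stopping with 3x volume of IMAP progressive binding solution. Final DMSO 1%.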

[5] = tested on: A549 cells; assay: Cell-based assay: anti-proliferative activity, Cell Counting Kit-8, 72 hours (A549); conditions: Homo sapiens, A549, 72 h, 72 hours
Method in brief: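 A549 cells seeded in 96-well plates and exposed to candidate inhibitors for 72 hours. Growth measured with Cell Counting Kit-8; IC50 values calculated from the dose response.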

SMILES	IC50 [1] [µM]	IC50 [2] [µM]	IC50 [3] [µM]	IC50 [4] [µM]	IC50 [5] [µM]
COc1cc(-c2ccc3ncc(C(=O)C4CC4)c(N[C@H]4CC[C@@H](CN(C)C)CC4)c3c2)cc(Cl)c1O [Example 513]	0.086	3.8	0.19	0.002	0.099
COc1cc(-c2ccc3ncc(C(=O)C4CC4)c(Nc4ccc(C(N)=O)cc4)c3c2)cc(Cl)c1O [Example 546, 4-(6-(3-chloro-4-hydroxy-5-methoxyphenyl)-3-(cyclopropanecarbonyl)quinolin-4-ylamino)benzamide]	1	12	1.1	0.04	1
CN(C)Cc1cccc(Nc2c(C(=O)C3CC3)cnc3ccc(-c4cc(F)c(O)c(Cl)c4)cc23)c1 [Example 629, (6-(3-chloro-5-fluoro-4-hydroxyphenyl)-4-(3-((dimethylamino)methyl)phenylamino)quinolin-3-yl)(cyclopropyl)methanone]	0.069	3.3	0.58	0.0051	0.12
O=C(c1cnc2ccc(-c3cc(Cl)c(O)c(Cl)c3)cc2c1N[C@H]1CC[C@H](CN2CC[C@@H](F)C2)CC1)C1CC1 [Example 571, cyclopropyl(6-(3,5-dichloro-4-hydroxyphenyl)-4-((trans-4-(((R)-3-fluoropyrrolidin)methyl)cyclohexyl)amino)quinolin-3-yl)methanon]	0.08	0.39	0.18	0.0043	0.16
O=C(c1cnc2ccc(-c3cc(F)c(O)c(Cl)c3)cc2c1Nc1cnn(C2CCNCC2)c1)C1CC1 [Example 520]	0.042	10	0.081	0.0016	0.52
CC(C)C(=O)c1cnc2ccc(-c3cc(F)c(O)c(Cl)c3)cc2c1N[C@H]1CC[C@H](CN(C)C)CC1 [Example 620]	0.095	0.17	0.16	0.0066	0.18
NC1CCCN(c2ccc(Nc3c(C(=O)C4CC4)cnc4ccc(-c5cc(F)c(O)c(Cl)c5)cc34)cn2)C1 (centres unmarked) [Example 561, (4-(6-(3-aminopiperidin-1-yl)pyridin-3-ylamino)-6-(3-chloro-5-fluoro-4-hydroxyphenyl)quinolin-3-yl)(cyclopropyl)methanone]	0.0066	0.3	0.0055	0.0027	0.008
NC1CCCN(c2ncc(Nc3c(C(=O)C4CC4)cnc4ccc(-c5cc(F)c(O)c(Cl)c5)cc34)cn2)C1 (centres unmarked) [Example 626, (4-(2-(3-aminopiperidin-1-yl)pyrimidin-5-ylamino)-6-(3-chloro-5-fluoro-4-hydroxyphenyl)quinolin-3-yl)(cyclopropyl)methanone]	0.0048	0.05	0.0051	0.0011	0.0073
COc1cc(-c2ccc3ncc(C(=O)C4CC4)c(N[C@H]4CC[C@@H](CN(C)CC#N)CC4)c3c2)cc(Cl)c1O [Example 518, 2-((((1R,4R)-4-(6-(3-chloro-4-hydroxy-5-methoxyphenyl)-3-(cyclopropanecarbonyl)quinolin-4-ylamino)cyclohexyl)methyl)(methyl)amino)acetonitrile]	0.078	3.4	0.16	0.013	0.17
CN(C)CCc1ccc(Nc2c(C(=O)C3CC3)cnc3ccc(-c4cc(F)c(O)c(Cl)c4)cc23)cc1 [Example 615, (6-(3-chloro-5-fluoro-4-hydroxyphenyl)-4-(4-(2-(dimethylamino)ethyl)phenylamino)quinolin-3-yl)(cyclopropyl)methanone]	0.042	1.4	0.17	0.0082	0.086

— patent US9120749B2, “Quinoline derivatives and MELK inhibitors containing the same” (ONCOTHERAPY SCIENCE, INC., priority 2010, dated 2015)
